In patent US20100069343A1, “Methods of predicting steroid responsiveness with Il-1RII” (priority 2008, published 2010):
Several values for one entry are separate records, joined by “and”; a condition that tells them apart may be missing. Equal values may be shown once.

Assays:
patients with AIED = experiment: Prednisone treatment of AIED patients with sudden hearing decline, pre/post-treatment audiograms; type: in vivo, human; conditions: for AVG Improve: 60 mg prednisone daily 7 days then taper
Method: FIG. 5A. 10 patients with presumptive AIED and sudden declines in hearing were enrolled, blood samples were taken and then the patients were treated with 60 mg prednisone/day×7 days and then tapered. Post-treatment audiograms were obtained between 7-14 days later. Improvement (Δ) was measured as the average of 500, 1, 2, 4 & 8 kHz. […] The patient that improved 13.3 dB represented a patient that returned to normal hearing thresholds. PBMC were isolated, divided and cultured for 16 hours with either 0 μg/ml or increasing concentrations of dexamethasone (8, 20, 40 or 80 μg/ml). Fold changes in levels of mIL-1RII by Q-RT-PCR after in vitro challenge with dexamethasone (expressed as fold change over baseline) predicted steroid responsiveness in AIED. In data on 7 subjects, the fold-increase was log-transformed in order to better meet the assumptions of a normal distribution with equal variance.
Prospectively Enrolled, Steroid Treated Subjects. Ten patients with AIED who had not undergone cochlear implantation were studied in a separate IRB approved protocol. […] The responders were defined as a 10 dB or greater average improvement at 250, 500, 1000, 2000, 4000 and 8000 Hz. […] Furthermore, SNHL of greater than 30 dB at one or more frequencies in both ears with evidence of active deterioration (elevated threshold) in at least one ear of 15 dB at one frequency (excluding 250 or 8 kHz as a sole indicator), or 10 dB at 2+ frequencies developing in >3 days but <90 days (Niparko et al. 2005, Yeom et al. 2003). If the hearing loss evolved in less than 3 days, prior similar hearing declines must have occurred or the patient must have a systemic autoimmune disorder AND the patient must meet the audiology criteria outlined above. All patients with retrocochlear (vestibular schwannoma or other internal auditory canal s) pathology), patients who received prednisone or other immunosuppressive therapy within 3 months, or patients with vestibular symptoms coinciding with periods of hearing fluctuation were all excluded from this study. All patients received a minimum of 60 mg of prednisone daily for 7 days with a variable taper thereafter.
60% of patients studied by the AIED study group were steroid responsive (Niparko et al. 2005). In the present study, in vitro PBMC membrane-bound IL-IRII (mIL-1RII) mRNA expression in response to dexamethasone stimulation was compared to basal mIL-1RII expression in cultures of PBMCs collected prior to clinical steroid treatment. In addition, pre-treatment mIL-1RII expression was compared to post-treatment hearing recovery. Furthermore, pre- and post-treatment mIL-1RII expression were compared in a subset of clinical responders and non-responders. […] All responders returned to their prior baseline hearing thresholds at the end of the corticosteroid treatment. Non-responders were defined as less than 5 dB improvement at the same frequencies or further decline of pure tone thresholds. […] Of note, the dramatic difference in fold change of the corticosteroid responders is inversely proportional to basal mIL-1RII expression in PBMC (45 cycles, S.D. 0.0 in replicate samples) in an unstimulated condition, compared to corticosteroid non-responders (28.48 cycles, S.D.±3.34) (FIG. 5B, p<0.0001). In all patient samples, the unstimulated condition is the average of 2 independent cultured PBMC samples. Furthermore, post-steroid therapy mIL-1RII expression was determined in a subset of patients.

mIL-1RII = experiment: Pre- and post-steroid therapy mIL-1RII expression in PBMC by Q-RT-PCR; type: in vivo, human; conditions: subset
Method: FIG. 5B. Pre- and post-treatment mIL-1RII levels in a subset of clinical responders and non-responders. Responders have essentially zero basal mIL-1RII expression, compared with non-responders that have substantially higher basal levels.
Q-RT-PCR. Quantitative Real Time RT-PCR (Q-RT-PCR) was performed on PBMC from patients using TaqMan chemistry. The relative abundance of IL1R2 mRNA for 2 membrane bound (mIL-1RII) and the soluble (sIL-1RII) coding regions associated with the 2 Affymetrix probes sets 211372 (sIL-1RII) and 205403 (mIL-1RID compared to β-actin was determined using the Eurogentec RTqPCR mastermix (Eurogentec, Belgium) and ABI PRISM 7700 Sequence Detection System. Membrane bound IL-1RII, as reflected by Affymetrix probe set 205403 was detected by primers nt 1239-1258, 1295-1314, and taqman probe 1271-1278, whereas the shorter soluble form (sIL-1RII) reflected by the Affymetrix probe 211372 and primers nt 790-830-849, and taqman probe 820-827. […] Data was analyzed using Sequence Detection System software version 1.9.1. Results were expressed as Ct (Threshold cycle) values, which is inversely proportional to the starting template copy number. Relative abundance of IL1R2 in […] cells was calculated compared to untreated control samples using delta delta Ct method (User Bulletin #2, Applied Biosystems Inc). […]

TNF-α = conditions: animal studies, inner ear; cited from earlier work
[1] = compared to placebo; cited from earlier work
IL-1RA, IL-1β = conditions: experimentally; cited from earlier work

C[C@]12C=CC(=O)C=C1CC[C@@H]1[C@@H]2C(=O)C[C@@]2(C)[C@H]1CC[C@]2(O)C(=O)CO [prednisone]
hearing outcome of responders (patients with AIED; Responders (R), post-treatment audiograms 7-14 days later): returned to prior baseline hearing
AVG Improve (patients with AIED; patient 39WM (R3)): 13.3 dB and 13 dB
AVG Improve (patients with AIED; patient 42 (NR2)): 0 dB
AVG Improve (patients with AIED; patient 45WM (NR 5), (NS)): 1 dB
AVG Improve (patients with AIED; patient 54 (R2)): 33 dB
AVG Improve (patients with AIED; patient 56 (R1)): 38 dB
AVG Improve (patients with AIED; patient 56WM (NR1)): 0 dB
AVG Improve (patients with AIED; patient 57 (NR4)): 0 dB
AVG Improve (patients with AIED; patient 60WF (NR7), (NS)): 4 dB
AVG Improve (patients with AIED; patient 61HF (NR3)): 0 dB
AVG Improve (patients with AIED; patient 62 (NR6)): 0dB
mIL-1RII expression detected post-treatment (mIL-1RII; clinical non-responders, pre-treatment 30 cycles): 27 cycles
mIL-1RII expression detected post-treatment (mIL-1RII; clinical responders, pre-treatment no expression at 45 cycles): 30 cycles

Etanercept
TNF-α release after administration of antigen (TNF-α): can be reversed

CN(Cc1cnc2nc(N)nc(N)c2n1)c1ccc(C(=O)N[C@@H](CCC(=O)O)C(=O)O)cc1 [methotrexate]
maintenance of hearing [1]: could not maintain hearing
IL-1RA release (IL-1RA, IL-1β): stimulates IL-1RA release
IL-1β synthesis (IL-1RA, IL-1β): inhibits IL-1β synthesis
